Earlier results in patent publication US20050249799A1, “Polymeric drug delivery system for hydrophobic drugs” (Spherics, Inc., priority 2004, published 2005).
Read-outs that look alike come from different tables or passages of the source. One block for each compound: values may come before it.

What was measured:
[1] = not given; remark: listed apart in the source

SMILES: Nc1nc2c(ncn2COCCO)c(=O)[nH]1 [Acyclovir, 2-amino-1,9-dihydro-9-[(2-hydroxyethoxy)methyl]-6H-purin-6-one]
absolute bioavailability (200 mg dose given every 4 hours): 20%

solubility in water [1]: practically insoluble
time to peak plasma concentrations (oral): 4 to 24 h
bioavailability (tablet form): 89%
SMILES: NC(=O)N1c2ccccc2C=Cc2ccccc21 [Carbamazepine, 5H-dibenz[b,f]azepine-5-carboxamide]

half-life (in vivo): 4 to 5 h
increase in plasma concentration on doubling the dose (oral): 30-40%
time to peak plasma concentrations (oral): ≤ 2 h
SMILES: C#C[C@]1(O)CC[C@H]2[C@@H]3CCC4=Cc5oncc5C[C@]4(C)[C@H]3CC[C@@]21C [Danazol, 17a-Pregna-2,4-dien-20-yno[2,3-d]-isoxazol-17-ol]

SMILES: CCC(C)n1ncn(-c2ccc(N3CCN(c4ccc(OCC5COC(Cn6cncn6)(c6ccc(Cl)cc6Cl)O5)cc4)CC3)cc2)c1=O (centres unmarked) [itraconazole, Itraconazole]
bioavailability (oral capsule): 55%
